Reference: ChEMBL document CHEMBL1201862, “PubChem BioAssay data set” (2004)
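Growth conditions: 96-well plates. Treatment: test compound, 48 hours, 5 concentrations. Analysis: linear interpolation between bracketing concentrations; unreached endpoints set to highest concentration. GI50 = concentration required for 50% inhibition of growth.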 Activity calls are given as the source filed them. No stated cut-off is given here; in the data, active = GI50 up to about 1.1 µM and inactive = higher.

Key:
Test in all cases: NCI tumour cell line growth inhibition, 48 h
LXFL 529 = test system: LXFL 529
DLD-1 = test system: DLD-1
DMS-114 = test system: DMS-114
M19-MEL = test system: M19-MEL
HOP-18 = test system: HOP-18
RXF 631 = test system: RXF 631
KM-20L2 = test system: KM-20L2
SNB-78 = test system: SNB-78
XF498 = test system: XF498

Measured: GI50

CSc1ccc(Cc2cc(C(C)(C)C)cc(C(C)(C)C)c2O)cc1
inactive: LXFL 529 13.9 µM | DLD-1 13.8 µM | DMS-114 13 µM | M19-MEL 16.8 µM | HOP-18 19.6 µM | RXF 631 14.9 µM | KM-20L2 14.6 µM | SNB-78 14.9 µM | XF498 17.8 µM

CCOC(=O)NC(=O)c1cn(C2OC(COC(=O)CCCCCCCCC(=O)OCC3OC(n4cc(C(=O)NC(=O)OCC)c(=O)[nH]c4=O)C(O)C3O)C(O)C2O)c(=O)[nH]c1=O (stereo not drawn)
inactive: LXFL 529 > 100 µM | DLD-1 > 100 µM | DMS-114 > 100 µM | M19-MEL > 100 µM | HOP-18 > 100 µM | RXF 631 > 100 µM | KM-20L2 > 100 µM | SNB-78 > 100 µM | XF498 > 100 µM
